From US20210071137A1, “PRODUCTION METHOD FOR CELL MASS INCLUDING NEURAL CELLS/TISSUE AND NON-NEURAL EPITHELIAL TISSUE, AND CELL MASS FROM SAME” (SUMITOMO CHEMICAL COMPANY, LIMITED, priority 2017, published 2021)

Legend:
[1] = system: Human ES cells (KhES-1 strain); experiment: Effect of each Wnt signal transduction pathway inhibiting substance on production of cell mass containing neural tissue and nonneural epithelial tissue (Example 7); type: cell-based; conditions: inhibitor added from start of suspension culturing (IWP-2 2 or 5 μM, C-59 2 μM, IWP-L6 1 or 10 μM, LGK974 1 or 5 μM, KY 02111 1 or 5 μM, XAV939 1 μM) with SB-431542 1 μM; BMP4 1.5 nM on day 2; bright field observation day 10
Protocol: Human ES cells (KhES-1 strain) were cultured under feeder-free conditions according to the method described in Scientific Reports, 4, 3594 (2014). As the feeder-free medium, StemFit medium was used and, as the feeder-free scaffold, Laminin 511-E8 was used. Specific maintenance culturing operation was performed in the same manner as in Example 1.
The thus-prepared subconfluent human ES cells were washed with PBS, subjected to an enzyme treatment using Accumax, a mukessei medium medium for differentiation induction was added, and the cells were scraped from the surface of the culture dish by using a cell scraper and dispersed into single cells by pipetting. Thereafter, the aforementioned human ES cells dispersed into single cells were suspended in 100 μl of a serum-free medium at 1.2×10^4 cells per well of a non-cell-adhesive 96-well culture plate (PrimeSurface 96V-bottom plate, manufactured by SUMITOMO BAKELITE), and cultured in suspension under the conditions of 37° C., 5% CO2. As the serum-free medium (gfCDM+KSR) therefor, a serum-free medium which is a 1:1 mixture of F-12+Glutamax medium and IMDM+Glutamax medium supplemented with 5% Knockout Serum Replacement, 450 μM 1-mono thioglycerol, 1× Chemically defined lipid concentrate, 50u/ml penicillin-50 μg/ml streptomycin was used. At the time of the start of suspension culturing (day 0 from the start of suspension culturing, start of step 1), Y27632 (final concentration 20 μM) and SB-431542 (1 μM) were added to the aforementioned serum-free medium. As the Wnt signal transduction pathway inhibiting substance, IWP-2 (manufactured by Tocris Bioscience, 2 or 5 μM), C-59 (manufactured by Cayman Chemicals, 2 μM), IWP-L6 (manufactured by AdooQ bioscience, 1 or 10 μM), LGK974 (manufactured by Cayman Chemicals, 1 or 5 μM), KY 02111 (manufactured by Cayman Chemicals, 1 or 5 μM), or XAV939 (manufactured by Cayman Chemicals, 1 μM) was added at the start of the suspension culturing, and the condition with the addition of DMSO alone as a control of no addition of a Wnt signal transduction pathway inhibiting substance was performed. Thereafter, a serum-free medium not containing Y27632 and containing each Wnt signal transduction pathway inhibiting substance, SB-431542 and BMP4 was added at 100 μl per well on day 2 from the start of suspension culturing. BMP4 was added at 3 nM to the medium so that the final concentration in the well could be 1.5 nM. A half amount of the medium was changed with a serum-free medium not containing Y27632 or BMP and containing each Wnt signal transduction pathway inhibiting substance and SB-431542 on day 6 from the start of suspension culturing. Bright field observation was performed under an inverted microscope (manufactured by KEYENCE CORPORATION, BIOREVO) on day 10 from the start of suspension culturing (FIGS. 8A-K).

[2] = system: Human ES cells (KhES-1 strain); experiment: Effect of compound pre-treatment before differentiation induction on quality grade of cell masses (Example 8); type: cell-based; conditions: day 15 of differentiation induction; for number of Grade 1 cell masses (near spherical, not less than 80% of circumference coated with nonneural epithelium) / number of Grade 2 cell masses (80% to 40% of circumference coated with nonneural epithelium, or distorted shape) / number of Grade 3 cell masses (nonneural epithelium on surface not more than 40%): of 32 cell masses, pre-treatment 6 days after seeding (300 nM SAG and/or 5 μM SB-431542)
Protocol: Human ES cells (KhES-1 strain) were cultured under feeder-free conditions according to the method described in Scientific Reports, 4, 3594 (2014). As the feeder-free medium, StemFit medium was used and, as the feeder-free scaffold, Laminin 511-E8 was used. Specific maintenance culturing operation was performed in the same manner as in Example 1. Cells under 4 conditions were prepared including conditions in which, when the cultured cells are used for differentiation induction, nothing is simultaneously added with medium change with […] medium (Control), conditions in which 300 nM SAG alone is added (+300 nM SAG), conditions in which 5 µM SB-431542 alone is added (+5 μM SB-431542), and conditions in which SAG and SB431542 are simultaneously added (+SAG/SB) at 6 days after seeding. The next day of the above-mentioned treatment, human ES cells under 4 conditions that reached subconfluence were each subjected to differentiation induction by suspension culturing into a cell mass containing neural tissue and nonneural epithelial tissue according to the method described in Example 1. Thereafter, on day 15 of differentiation induction, bright field observation was performed using an inverted microscope (manufactured by KEYENCE CORPORATION, BIOREVO). The cell masses formed after each pre-treatment were evaluated in three stages of cell masses with near spherical form in which not less than 80% of the whole circumference is coated with nonneural epithelium (Grade 1, e.g.-FIG. 9A); cell masses in which 80% to 40% of the whole circumference is coated with nonneural epithelium, or with a distorted shape (Grade 2, e.g.-FIG. 9B); and cell masses in which the proportion of nonneural epithelium on the cell mass surface is not more than 40% (Grade 3, e.g.=FIG. 9C).

Cc1cc(-c2ccc(CC(=O)Nc3ccc(-c4cccnc4)cc3)cc2)ccn1 [C-59]
formation of cell mass having nonneural epithelial tissue on the surface [1]: a cell mass having nonneural epithelial tissue on the surface was formed

Cc1ccc2nc(NC(=O)CSc3nc4c(c(=O)n3-c3ccccc3)SCC4)sc2c1 [IWP-2]
formation of cell mass having nonneural epithelial tissue on the surface [1]: a cell mass having nonneural epithelial tissue on the surface was formed

O=C(CSc1nc2c(c(=O)n1-c1ccccc1)SCC2)Nc1ccc(-c2ccccc2)cn1 [IWP-L6]
formation of cell mass having nonneural epithelial tissue on the surface [1]: a cell mass having nonneural epithelial tissue on the surface was formed

COc1ccc(CCC(=O)Nc2nc3ccc(Cl)cc3s2)cc1OC [KY02111]
formation of cell mass having nonneural epithelial tissue on the surface [1]: a cell mass having nonneural epithelial tissue on the surface was formed

Cc1cc(-c2ncc(CC(=O)Nc3ccc(-c4cnccn4)cn3)cc2C)ccn1 [LGK974]
formation of cell mass having nonneural epithelial tissue on the surface [1]: a cell mass having nonneural epithelial tissue on the surface was formed

CNC1CCC(N(Cc2cccc(-c3ccncc3)c2)C(=O)c2sc3ccccc3c2Cl)CC1 (stereo not shown) [SAG, N-Methyl-N′-(3-pyridinylbenzyl)-N′-(3-chlorobenzo[b]thiophene-2-carbonyl)-1,4-diaminocyclohexane]
number of Grade 1 cell masses (near spherical, not less than 80% of circumference coated with nonneural epithelium) [2]: 10
number of Grade 2 cell masses (80% to 40% of circumference coated with nonneural epithelium, or distorted shape) [2]: 18
number of Grade 3 cell masses (nonneural epithelium on surface not more than 40%) [2]: 4

NC(=O)c1ccc(-c2nc(-c3ccc4c(c3)OCO4)c(-c3ccccn3)[nH]2)cc1 [SB-431542, 4-(5-benzol[1,3]dioxol-5-yl-4-pyridin-2-yl-1H-imidazol-2-yl)-benzamide]
number of Grade 1 cell masses (near spherical, not less than 80% of circumference coated with nonneural epithelium) [2]: 28
number of Grade 2 cell masses (80% to 40% of circumference coated with nonneural epithelium, or distorted shape) [2]: 4
number of Grade 3 cell masses (nonneural epithelium on surface not more than 40%) [2]: 0
proportion of Grade 1 cell masses as compared to Control with no treatment ([2]; pre-treatment 6 days after seeding): drastically improved

Oc1nc(-c2ccc(C(F)(F)F)cc2)nc2c1CSCC2 [XAV939]
formation of cell mass having nonneural epithelial tissue on the surface [1]: a cell mass having nonneural epithelial tissue on the surface was formed
